This note sets out measurements from ChEMBL document CHEMBL5523701, “Structure-based discovery of small molecule inhibitors of FKBP51-Hsp90 protein-protein interaction” (Eur J Med Chem, 2024).

pIC50: −log10 of the molar value.

Assay [1] has as its target T1, Peptidyl-prolyl cis-trans isomerase FKBP4 (Homo sapiens, UniProt Q02790).
T1 sequence (Q02790 whole entry): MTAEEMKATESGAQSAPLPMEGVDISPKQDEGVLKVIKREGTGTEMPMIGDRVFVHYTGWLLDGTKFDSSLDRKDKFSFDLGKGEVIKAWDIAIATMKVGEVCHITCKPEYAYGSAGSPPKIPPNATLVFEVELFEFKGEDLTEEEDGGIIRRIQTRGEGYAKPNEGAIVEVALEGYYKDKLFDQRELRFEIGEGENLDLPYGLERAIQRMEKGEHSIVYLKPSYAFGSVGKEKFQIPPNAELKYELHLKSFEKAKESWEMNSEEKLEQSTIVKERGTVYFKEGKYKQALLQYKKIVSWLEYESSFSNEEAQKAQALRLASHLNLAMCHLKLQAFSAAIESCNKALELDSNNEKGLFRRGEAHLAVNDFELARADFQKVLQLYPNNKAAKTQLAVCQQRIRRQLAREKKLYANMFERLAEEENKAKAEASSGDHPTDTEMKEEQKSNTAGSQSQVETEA
As to the kind of experiment: Inhibition of GST-tagged human FKBP52 expressed in Escherichia coli BL21 (DE3) using NH2-EDASRMEEVD-COOH peptide as substrate preincubated for 15 mins followed by substrate addition measured after 15 mins by Alpha Screen assay. Background: In Alpha technology, singlet oxygen from a donor bead excites a nearby acceptor bead.

Assay [2] has as its target T2, Mitochondrial import receptor subunit TOM34 (Homo sapiens, UniProt Q15785).
T2 sequence (Q15785 whole entry): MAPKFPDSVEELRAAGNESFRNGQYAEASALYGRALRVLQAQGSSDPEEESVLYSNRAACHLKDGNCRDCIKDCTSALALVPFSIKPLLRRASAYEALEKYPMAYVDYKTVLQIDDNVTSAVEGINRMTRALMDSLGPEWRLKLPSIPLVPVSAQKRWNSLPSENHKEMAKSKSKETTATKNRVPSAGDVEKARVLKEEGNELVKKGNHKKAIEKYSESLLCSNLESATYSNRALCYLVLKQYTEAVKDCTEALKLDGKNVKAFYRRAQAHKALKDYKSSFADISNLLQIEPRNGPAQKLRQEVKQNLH
Put plainly: Inhibition of GST-tagged human TOM34 expressed in Escherichia coli BL21 (DE3) using NH2-EDASRMEEVD-COOH peptide as substrate preincubated for 15 mins followed by substrate addition measured after 15 mins by Alpha Screen assay.

Assay [3] has as its target Peptidyl-prolyl cis-trans isomerase FKBP8 (Homo sapiens, UniProt Q14318). Put plainly: Inhibition of GST-tagged human FKBP38 expressed in Escherichia coli BL21 (DE3) using NH2-EDASRMEEVD-COOH peptide as substrate preincubated for 15 mins followed by substrate addition measured after 15 mins by Alpha Screen assay.
Assay [4] deals with Small glutamine-rich tetratricopeptide repeat-containing protein alpha (Homo sapiens, UniProt O43765). As to the kind of experiment: Inhibition of GST-tagged human SGTA expressed in Escherichia coli BL21 (DE3) using NH2-EDASRMEEVD-COOH peptide as substrate preincubated for 15 mins followed by substrate addition measured after 15 mins by Alpha Screen assay.
In assay [5] the target is T3, E3 ubiquitin-protein ligase CHIP (Homo sapiens, UniProt Q9UNE7).
T3 sequence (Q9UNE7 whole entry): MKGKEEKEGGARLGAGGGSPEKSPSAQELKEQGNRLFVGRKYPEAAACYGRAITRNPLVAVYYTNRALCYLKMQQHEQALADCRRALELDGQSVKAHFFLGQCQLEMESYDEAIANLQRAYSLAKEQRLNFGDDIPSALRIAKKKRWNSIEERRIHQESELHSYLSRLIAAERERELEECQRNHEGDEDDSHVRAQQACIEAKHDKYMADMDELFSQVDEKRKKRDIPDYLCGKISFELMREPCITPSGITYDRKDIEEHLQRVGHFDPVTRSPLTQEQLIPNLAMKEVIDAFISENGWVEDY
Put plainly: Inhibition of GST-tagged human CHIP expressed in Escherichia coli BL21 (DE3) using NH2-EDASRMEEVD-COOH peptide as substrate preincubated for 15 mins followed by substrate addition measured after 15 mins by Alpha Screen assay.

For assay [6], the target named is T4, AH receptor-interacting protein (Homo sapiens, UniProt O00170).
T4 sequence (O00170 whole entry): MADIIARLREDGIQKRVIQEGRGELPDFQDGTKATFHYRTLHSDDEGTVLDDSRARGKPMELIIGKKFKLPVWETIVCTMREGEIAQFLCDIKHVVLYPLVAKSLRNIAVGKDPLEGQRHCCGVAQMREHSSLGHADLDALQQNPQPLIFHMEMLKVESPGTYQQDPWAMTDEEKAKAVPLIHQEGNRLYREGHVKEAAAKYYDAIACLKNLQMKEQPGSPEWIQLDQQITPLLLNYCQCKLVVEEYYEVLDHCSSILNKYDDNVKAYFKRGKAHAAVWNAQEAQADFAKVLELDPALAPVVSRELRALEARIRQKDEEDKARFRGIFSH
Put plainly: Inhibition of GST-tagged human AIP expressed in Escherichia coli BL21 (DE3) using NH2-EDASRMEEVD-COOH peptide as substrate preincubated for 15 mins followed by substrate addition measured after 15 mins by Alpha Screen assay.

For assay [7], the target named is Stress-induced-phosphoprotein 1 (Homo sapiens, UniProt P31948). Put plainly: Inhibition of GST-tagged human HOP expressed in Escherichia coli BL21 (DE3) using NH2-EDASRMEEVD-COOH peptide as substrate preincubated for 15 mins followed by substrate addition measured after 15 mins by Alpha Screen assay.
For assay [8], the target named is T5, DnaJ homolog subfamily C member 7 (Homo sapiens, UniProt Q99615).
T5 sequence (Q99615 whole entry): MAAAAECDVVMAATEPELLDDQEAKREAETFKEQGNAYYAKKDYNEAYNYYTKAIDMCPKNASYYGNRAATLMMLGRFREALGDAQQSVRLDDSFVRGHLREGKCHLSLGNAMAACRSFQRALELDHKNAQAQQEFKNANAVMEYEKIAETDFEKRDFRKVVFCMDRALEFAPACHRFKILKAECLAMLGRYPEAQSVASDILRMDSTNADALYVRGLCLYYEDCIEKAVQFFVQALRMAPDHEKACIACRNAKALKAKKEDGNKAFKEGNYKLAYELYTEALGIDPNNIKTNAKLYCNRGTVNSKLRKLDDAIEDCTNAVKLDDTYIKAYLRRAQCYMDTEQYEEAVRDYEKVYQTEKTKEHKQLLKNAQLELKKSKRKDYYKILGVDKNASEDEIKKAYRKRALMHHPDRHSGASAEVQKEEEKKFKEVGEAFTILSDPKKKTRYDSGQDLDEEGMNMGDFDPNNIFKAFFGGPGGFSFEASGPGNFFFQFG
As to the kind of experiment: Inhibition of GST-tagged human DNAJC7 expressed in Escherichia coli BL21 (DE3) using NH2-EDASRMEEVD-COOH peptide as substrate preincubated for 15 mins followed by substrate addition measured after 15 mins by Alpha Screen assay.

Peptidyl-prolyl cis-trans isomerase FKBP8, sequence (Q14318 whole entry): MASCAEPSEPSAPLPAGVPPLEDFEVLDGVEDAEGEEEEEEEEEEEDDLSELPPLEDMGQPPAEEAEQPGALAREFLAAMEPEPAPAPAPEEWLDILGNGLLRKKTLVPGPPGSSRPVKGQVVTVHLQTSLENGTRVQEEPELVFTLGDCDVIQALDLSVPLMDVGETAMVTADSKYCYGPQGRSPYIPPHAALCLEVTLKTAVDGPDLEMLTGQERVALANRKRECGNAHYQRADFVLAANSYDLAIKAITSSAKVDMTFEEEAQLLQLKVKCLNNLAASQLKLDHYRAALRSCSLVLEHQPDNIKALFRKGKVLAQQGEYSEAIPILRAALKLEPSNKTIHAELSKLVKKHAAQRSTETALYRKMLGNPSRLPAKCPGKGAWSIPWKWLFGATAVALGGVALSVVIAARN
Stress-induced-phosphoprotein 1, sequence (P31948 whole entry): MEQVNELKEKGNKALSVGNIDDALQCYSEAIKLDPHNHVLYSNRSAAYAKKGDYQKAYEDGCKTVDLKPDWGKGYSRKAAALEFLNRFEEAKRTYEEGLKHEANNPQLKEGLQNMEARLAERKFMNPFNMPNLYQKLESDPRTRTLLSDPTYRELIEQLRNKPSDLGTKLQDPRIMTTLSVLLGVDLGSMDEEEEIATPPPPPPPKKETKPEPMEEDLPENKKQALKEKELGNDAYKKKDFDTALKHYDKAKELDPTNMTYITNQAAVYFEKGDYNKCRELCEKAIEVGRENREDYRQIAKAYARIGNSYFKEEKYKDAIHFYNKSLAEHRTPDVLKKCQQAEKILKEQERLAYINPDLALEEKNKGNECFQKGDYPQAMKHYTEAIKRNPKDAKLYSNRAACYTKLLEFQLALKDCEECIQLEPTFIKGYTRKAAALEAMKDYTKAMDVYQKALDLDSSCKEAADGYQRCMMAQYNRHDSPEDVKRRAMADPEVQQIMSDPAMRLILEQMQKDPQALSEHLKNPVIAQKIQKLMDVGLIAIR
Small glutamine-rich tetratricopeptide repeat-containing protein alpha, sequence (O43765 whole entry): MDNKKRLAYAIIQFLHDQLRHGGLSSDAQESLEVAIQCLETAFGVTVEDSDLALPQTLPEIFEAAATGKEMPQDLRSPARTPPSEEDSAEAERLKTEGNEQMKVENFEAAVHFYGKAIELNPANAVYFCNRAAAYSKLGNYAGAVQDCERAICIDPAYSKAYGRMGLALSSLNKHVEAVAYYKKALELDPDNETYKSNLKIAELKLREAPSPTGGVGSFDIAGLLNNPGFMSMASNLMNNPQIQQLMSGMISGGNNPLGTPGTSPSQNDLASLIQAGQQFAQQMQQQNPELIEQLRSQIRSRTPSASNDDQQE

Usually pIC50 stands for the negative decadic logarithm of the IC50, by convention in mol/L. As to `COC(=O)c1c(NC(=O)CSc2nnc(-c3ccco3)c(-c3ccco3)n2)sc(C)c1C`, the pIC50 is 5.52 in assay [1]; 5.40 in assay [2]; 5.60 in assay [3]; 5.22 in assay [4]; 5.60 in assay [5]; 5.22 in assay [6]. Further, the pIC50 in assay [7] is 5.30; in assay [8], 5.40.

As to `Cc1sc(NC(=O)CCCC(=O)Nc2sc(C)c(C)c2C(N)=O)c(C(N)=O)c1C`, the pIC50 in assay [1] is 5.30; in assay [2] it was 5.52; in assay [3], 5.40; in assay [4] it was 5.70; in assay [5], 5.60; in assay [6], 5.15. For the same compound, the figures for the pIC50 in assay [7] and in assay [8] were 5.00 and 5.70, respectively.
